Patent US20120035201A1, “SPIROHETEROCYCLIC PYRROLIDINE DIONE DERIVATIVES USED AS PESTICIDES” (SYNGENTA CROP PROTECTION LLC, priority 2009, published 2012)

Tests used:
[1] = tested on: Myzus persicae (green peach aphid); test: Example B1: activity against Myzus persicae, sprayed sunflower leaf discs (feeding/residual contact, preventive); details: foliar, 144 h, read-out: activity (mortality)
[2] = tested on: Myzus persicae (green peach aphid); test: Example B12: activity against Myzus persicae on sprayed pepper plants (feeding/residual contact); type: in vivo; details: 144 h, 6 days
[3] = tested on: Tetranychus urticae (two-spotted spider mite); test: Example B3: activity against Tetranychus urticae, sprayed bean leaf discs (feeding/residual contact, preventive); type: in vivo; details: foliar, 192 h, mixed population, 8 days, read-out: activity (egg, larval and adult mortality)
Excerpt: Activity Against Tetranychus urticae (Two-Spotted Spider Mite)
(Mixed Population, Feeding/Residual Contact Activity, Preventive)
Bean leaf discs on agar in 24-well microtiter plates are sprayed with test solutions. […] 8 days later, discs are checked for egg mortality, larval mortality, and adult mortality. In this test, compounds listed in the Table A above show good activity. In particular compounds A1, A4, A5, A7, A8, A9, A10, A11, A12, A13 and A14 show an activity of over 80% at a concentration of 400 ppm.

[4] = tested on: Myzus persicae (green peach aphid); test: Example B2: activity against Myzus persicae, pea seedling roots in test solution (systemic/feeding, curative); details: 144 h, read-out: activity (mortality)
[5] = tested on: Aphis Craccivora (cowpea aphid); test: Example B9: translaminar activity against Aphis craccivora on French bean leaves; type: in vivo; details: 120 h, upper leaf side painted, aphids on lower side, 5 days
Method: Translaminar Activity Against Aphis Craccivora (Cowpea Aphid)
French bean leaves (Phaseolus vulgaris) are infested with about 20 mixed age individuals on the lower leaf side using clip cages. 1 day after the infestation, the upper side of the leaves is treated with the test solution by painting. 5 days later, samples are checked for mortality.

[6] = tested on: Nilaparvata lugens (brown rice planthopper); test: Example B8: activity against Nilaparvata lugens, larvicide on rice seedlings (feeding/contact); type: in vivo; details: sprayed rice seedlings, N3 nymphs, 6-12 days, read-out: activity (mortality, growth regulation, effects on F1 generation)
Method: Activity Against Nilaparvata lugens (Brown Rice Planthopper)
(Larvicide, Feeding/Contact)
Rice seedlings are treated with the diluted test solutions in a spray chamber. After drying, they are infested with 20 N3 nymphs (2 replicates). 6-12 days after the treatment samples are checked for mortality, growth regulation, and effects on the F1 generation. In this test, compounds listed in the Table A above show good activity. For example compounds A1, A2, A4, A7, A8, A9, A13 and A14 show an activity of over 80% at a concentration of 400 ppm.

[7] = tested on: Aphis Craccivora (cowpea aphid); test: Example B15: activity against Aphis craccivora, pea seedling roots in test solution (systemic/feeding); type: in vivo; details: 144 h, roots of infested pea seedlings in test solution, 6 days
Excerpt: Activity Against Aphis Craccivora (Cowpea Aphid)
(§1) (Mixed Population, Systemic/Feeding)
6 days later, samples are checked for mortality. In this test, compounds listed in Table A above show good activity. For example compounds A8, A9, A13 and A14 show an activity of over 80% at a concentration of 25 ppm.

[8] = tested on: Diabrotica balteata (corn root worm); test: Example B5: activity against Diabrotica balteata, larvicide on artificial diet in microtiter plate; type: in vivo; details: 120 h, L2 larvae, 5 days, read-out: activity (larval mortality, antifeedant, growth regulation)
Method: Activity Against Diabrotica balteata (Corn Root Worm)
(Larvicide, Feeding/Residual Contact Activity, Preventive)
24-well microtiter plate (MTP) with artificial diet is treated with test solutions by pipetting. After drying, the MTP's are infested with larvae (L2)(6-10 per well). After an incubation period of 5 days, samples are checked for larval mortality, antifeedant and growth regulation.

pepper plants = test: Example B12: plant damage evaluation (phytotoxicity) on sprayed pepper plants; details: in vivo, 6 days, 200 ppm
[9] = tested on: Thrips tabaci (onion thrips); test: Example B4: activity against Thrips tabaci, sprayed sunflower leaf discs (feeding/residual contact, preventive); details: foliar, 144 h, read-out: activity (mortality)
[10] = tested on: cowpea aphid (Aphis craccivora); test: Example B13: insecticide seed treatment of sugarbeet seeds, infestation with cowpea aphid; type: in vivo; details: 0.1 mg a.i./seed, infested after 14 days, counted 7 days later
Method: Insecticide Seed Treatment
Sugarbeet seeds are treated with test compounds at various rates (mg a.i./seed). The seeds are sown into pots filled with soil. After placing the seeds on the soil surface they are further covered with soil. Before and during the bioassays, the plants are grown under optimal greenhouse conditions. After 14 days, the plants are infested with cowpea aphid (Aphis craccivora) by placing one infested pea seedling containing approximately 150 aphids of a population of mixed developmental stages onto each plant. Seven days after infestation, the number of aphids is counted per plant. Each treatment group is replicated 10 times. Each replicate contains 1 plant.

[11] = tested on: Bemisia tabaci (tobacco white fly); test: Example B7: activity against Bemisia tabaci, larvicide on bean plants (contact/feeding); type: in vivo; details: 200 ppm; bean plants with N-2 nymphs sprayed, three weeks
Method: Activity Against Bemisia tabaci (Tobacco White Fly)
(Larvicide, Contact/Feeding)
Bean plants are infested with 20-30 adults that were removed after a 4 day egg-laying period. After another 7 days, bean plants with hatched nymphs (N−2) are treated (2 replicates) with the test solutions in a spray chamber. Three weeks later, samples are checked for number of emerged adults. Efficacy was calculeted by comparing number of emerged adults in treated and non treated samples.

[12] = tested on: Aphis gossypii (cotton aphid); test: Example B11: activity against Aphis gossypii, pea seedling roots in test solution (systemic/feeding); type: in vivo; details: 144 h, roots of infested pea seedlings in test solution, 6 days
Excerpt: Activity Against Aphis gossypii (Cotton Aphid)
as §1
6 days later, samples are checked for mortality. In this test, compounds listed in Table A above show good activity.

[13] = tested on: Aonidiella Aurantii (red scale); test: Example B10: activity against Aonidiella aurantii, dipped potato tubers; type: in vivo; details: 200 ppm, 6-8 weeks
Excerpt: Activity Against Aonidiella Aurantii (Red Scale)
Treatment of potato tubers by dipping the in the test solution. One day later, tubers are infested with about 50 crawlers. 6-8 weeks after application samples are checked for the number of crawlers of the next generation (compared to the non treated samples). In this test, compounds listed in the Table A above show good activity.

| Structure (SMILES) | mortality at 400 ppm [1] [%] | mortality at 400 ppm [3] [%] | mortality at 400 ppm [4] [%] | mortality at 400 ppm [5] [%] | mortality at 400 ppm [6] [%] | mortality at 400 ppm [9] [%] | further results |
| --- | --- | --- | --- | --- | --- | --- | --- |
| CON1CCC2(CC1)NC(=O)C(Cl)(c1c(C)cc(Br)cc1C)C2=O (stereo not drawn) [A6] | > 80 |  |  |  |  |  |  |
| CON1CCC2(CC1)NC(=O)C(Cl)(c1cc(C)c(C)cc1C)C2=O (stereo not drawn) [A13] | > 80 | > 80 | > 80 | > 80 | > 80 | > 80 | mortality at 200 ppm [2]: ≥ 80%; mortality at 25 ppm [7]: > 80%; mortality at 400 ppm [8]: > 80%; damage to pepper plants (phytotoxicity, 0-100% rating scale) (pepper plants): ≤ 10% |
| CON1CCC2(CC1)NC(=O)C(Cl)(c1cc(C)c(Cl)cc1C)C2=O (stereo not drawn) [A11] | > 80 | > 80 |  |  |  | > 80 | mortality at 400 ppm [8]: > 80% |
| CON1CCC2(CC1)NC(=O)C(Cl)(c1c(C)cc(Cl)cc1C)C2=O (stereo not drawn) [A5] | > 80 | > 80 | > 80 |  |  | > 80 | mortality at 200 ppm [2]: ≥ 80%; damage to pepper plants (phytotoxicity, 0-100% rating scale) (pepper plants): ≤ 10% |
| CON1CCC2(CC1)NC(=O)C(Cl)(c1ccc(Cl)cc1Cl)C2=O (stereo not drawn) [A3] | > 80 |  | > 80 |  |  |  |  |
| CON1CCC2(CC1)NC(=O)C(Cl)(c1cc(Br)c(C)cc1C)C2=O (stereo not drawn) [A15] | > 80 |  | > 80 |  |  | > 80 |  |
| CON1CCC2(CC1)NC(=O)C(Cl)(c1c(C)cc(C)cc1C)C2=O (stereo not drawn) [A14] | > 80 | > 80 | > 80 | > 80 | > 80 | > 80 | mortality at 25 ppm [7]: > 80% |
| CON1CCC2(CC1)NC(=O)C(c1c(C)cc(C)cc1C)([N+](=O)[O-])C2=O (stereo not drawn) [A16, 8-methoxy-3-nitro-3-(2,4,6-trimethyl-phenyl)-1,8-diaza-spiro[4.5]decane-2,4-dione] |  |  |  |  |  |  | melting point: 136 °C (dec.) |
| CON1CCC2(CC1)NC(=O)C(Cl)(c1c(C)cc(Br)cc1Cl)C2=O (stereo not drawn) [A7, 3-(4-bromo-2-chloro-6-methyl-phenyl)-3-chloro-8-methoxy-1,8-diaza-spiro[4.5]decane-2,4-dione] | > 80 | > 80 | > 80 | > 80 | > 80 | > 80 | mortality at 200 ppm [2]: ≥ 80%; damage to pepper plants (phytotoxicity, 0-100% rating scale) (pepper plants): ≤ 10% |
| CON1CCC2(CC1)NC(=O)C(F)(c1cc(C)ccc1C)C2=O (stereo not drawn) [A2, 3-(2,5-dimethyl-phenyl)-3-fluoro-8-methoxy-1,8-diaza-spiro[4.5]decane-2,4-dione] | > 80 |  |  |  | > 80 | > 80 |  |
| CON1CCC2(CC1)NC(=O)C(Cl)(c1cc(C)c(C)cc1Cl)C2=O (stereo not drawn) [A12] | > 80 | > 80 | > 80 |  |  | > 80 | mortality at 400 ppm [8]: > 80% |
| CON1CCC2(CC1)NC(=O)C(Cl)(c1c(C)cccc1C)C2=O (stereo not drawn) [A8] | > 80 | > 80 | > 80 | > 80 | > 80 | > 80 | mortality at 200 ppm [2]: ≥ 80%; mortality at 25 ppm [7]: > 80%; damage to pepper plants (phytotoxicity, 0-100% rating scale) (pepper plants): ≤ 10% |
| CON1CCC2(CC1)NC(=O)C(Cl)(c1c(C)ccc(Cl)c1C)C2=O (stereo not drawn) [A10] | > 80 | > 80 |  |  |  | > 80 |  |
| CON1CCC2(CC1)NC(=O)C(Cl)(c1cc(C)ccc1C)C2=O (stereo not drawn) [A1, 3-chloro-3-(2,5-dimethyl-phenyl)-8-methoxy-1,8-diaza-spiro[4.5]decane-2,4-dione] | > 80 | > 80 | > 80 |  | > 80 | > 80 | efficacy in the reduction of aphids compared to untreated control plants [10]: over 80%; activity (efficacy, number of emerged adults vs non treated) [11]: over 80%; mortality at 25 ppm [12]: > 80%; mortality at 400 ppm [8]: > 80%; activity (number of crawlers of the next generation vs non treated) [13]: over 80% |
| CON1CCC2(CC1)NC(=O)C(Cl)(c1c(C)cc(C)cc1Cl)C2=O (stereo not drawn) [A9] | > 80 | > 80 | > 80 | > 80 | > 80 | > 80 | mortality at 25 ppm [7]: > 80% |
| CON1CCC2(CC1)NC(=O)C(Cl)(c1c(Br)cc(C)cc1Br)C2=O (stereo not drawn) [A18] | > 80 |  | > 80 |  |  |  |  |
